# Results taken from patent US10251889B2, “Substituted pyrazolo[1,5-a]pyrimidine compounds as Trk kinase inhibitors” (Array BioPharma, Inc., priority 2009, dated 2019).
# Structures can show the parent of a compound that is named as a salt.
# Target: Jak2 (human Jak2 kinase domain, amino acids 808-1132) (Homo sapiens (Human), UniProt O60674)
# Assay: Jak2 inhibition assay (Omnia kinase assay)
# Assay type: biochemical
# Conditions: read-out: Jak2 Enzyme (% inhibition at 1000 nM)
# Protocol: The assays described in Examples C, D, E and F for the determination of JAK1, JAK2, JAK3 and Tyk2 kinase activity, respectively, utilized the Omnia® Kinase fluorescence peptide substrate-based technology (Invitrogen). […] The reactions were therefore read at excitation 360 nm and emission was measured at 485 nm every 50 seconds for 45 minutes using a PerkinElmer EnVision Multilabel Plate Reader.
# The final buffer conditions for each of the JAK1, JAK2, JAK3 and Tyk2 assays were as follows: 25 mM HEPES, pH 7.4, 10 mM MgCl2, 0.01% Triton X-100 and 1 mM DTT.
# Two-μL aliquots of these were transferred to a fresh plate for a ten-fold intermediate dilution with assay buffer. Five-μL aliquots of the diluted compounds were then transferred to 20-μL of assay mixtures described in Examples C, D, E and F for a final concentration of DMSO of 2%. […] For each plate, percent of control (POC) values were calculated for each well according to the following equation:
# where Xmax=Average Uninhibited Controls • Xmin=Average Background IC50's were estimated from the POC's using a standard 4-parameter logistic model:
# where A=Minimum Y (Bottom Asymptote) • B=Maximum Y (Top Asymptote) • C=EC50 • D=Slope Factor • X=Compound Concentration (nM) • Y=POC
# The IC50 is defined as the concentration of inhibitor at which the POC equals 50 for the fitted curve.
# Compounds of Formula I were screened for their ability to inhibit Jak2 using the general enzyme inhibition assay method, in which the assay mixture contained 500 μM ATP, 10 μM Omnia® Y7 peptide (Catalog # IVGN KNZ3071C, Invitrogen Corporation, Carlsbad, Calif.) and 4 nM Jak2 in a total volume of 20 μL. Human Jak2 kinase domain comprising amino acids 808-1132 was purchased from Invitrogen Corporation, Carlsbad, Calif. (catalog # IVGN PV4210).
# Chain of Jak2 (human Jak2 kinase domain, amino acids 808-1132) (O60674 808-1132): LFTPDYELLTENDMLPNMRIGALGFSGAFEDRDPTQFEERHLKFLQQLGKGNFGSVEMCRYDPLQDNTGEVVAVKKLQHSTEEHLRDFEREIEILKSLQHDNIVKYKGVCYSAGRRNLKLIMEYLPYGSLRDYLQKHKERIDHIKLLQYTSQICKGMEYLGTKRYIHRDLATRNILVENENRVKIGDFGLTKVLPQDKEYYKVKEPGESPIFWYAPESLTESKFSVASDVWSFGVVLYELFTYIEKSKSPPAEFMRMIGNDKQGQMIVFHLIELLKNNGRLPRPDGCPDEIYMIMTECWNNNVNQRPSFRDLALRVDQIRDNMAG
row,Structure (SMILES),inhibition at 1 µM [%]
1,"O=C(N[C@@H]1CCNC[C@@H]1F)c1cnn2ccc(N3CCC[C@@H]3c3cc(F)ccc3F)nc12 [Example 61, 5-((R)-2-(2,5-difluorophenyl)pyrrolidin-1-yl)-N-((3S,4R)-3-fluoropiperidin-4-yl)pyrazolo[1,5-a]pyrimidine-3-carboxamide Hydrochloride]",54.4

# Same assay, conditions: read-out: Jak2 Enzyme (% inhibition at 1000 nM), Table 1; 1000 nM test compound
row,inhibition at 1 µM [%],Structure (SMILES)
1,32.3,"O=C(NC1CC1)c1cnn2ccc(N3CCC[C@@H]3c3cc(F)ccc3OCC(O)CO)nc12 (stereo partly drawn) [Example 210, N-cyclopropyl-5-((2R)-2-(2-(2,3-dihydroxypropoxy)-5-fluorophenyl)pyrrolidin-1-yl)pyrazolo[1,5-a]pyrimidine-3-carboxamide]"
2,-1.4,"NC(=O)c1cnn2ccc(N3CCC[C@@H]3c3cncc(F)c3)nc12 [Example 117, (R)-5-(2-(5-fluoropyridin-3-yl)pyrrolidin-1-yl)pyrazolo[1,5-a]pyrimidine-3-carboxamide]"
3,13.2,"O=C(NC[C@H](O)CO)c1cnn2ccc(N3CCC[C@@H]3c3cc(F)ccc3F)nc12 [Example 29, 5-((R)-2-(2,5-difluorophenyl)pyrrolidin-1-yl)-N—((S)-2,3-dihydroxypropyl)pyrazolo[1,5-a]pyrimidine-3-carboxamide]"
4,66.2,"COc1ncc(F)cc1[C@H]1CCCN1c1ccn2ncc(C(=O)NC3CCN(S(C)(=O)=O)CC3)c2n1 [Example 162, (R)-5-(2-(5-fluoro-2-methoxypyridin-3-yl)pyrrolidin-1-yl)-N-(1-(methylsulfonyl)piperidin-4-yl)pyrazolo[1,5-a]pyrimidine-3-carboxamide]"
5,21.9,"C[C@H](NC(=O)c1cnn2ccc(N3[C@H](CO)CC[C@@H]3c3cncc(F)c3)nc12)C(F)(F)F [Example 213, 5-((2R,5S)-2-(5-fluoropyridin-3-yl)-5-(hydroxymethyl)pyrrolidin-1-yl)-N—((S)-1,1,1-trifluoropropan-2-yl)pyrazolo[1,5-a]pyrimidine-3-carboxamide]"
6,4.8,"NC(=O)c1cnn2ccc(N3CCC[C@@H]3c3cc(F)cc(OCCN4CCOCC4)c3)nc12 [Example 76, (R)-5-(2-(3-fluoro-5-(2-morpholinoethoxy)phenyl)pyrrolidin-1-yl)pyrazolo[1,5-a]pyrimidine-3-carboxamide]"
7,54.4,"COc1ncc(F)cc1[C@H]1CCCN1c1ccn2ncc(C(=O)NC(C)(C)CF)c2n1 [Example 81, (R)-5-(2-(5-fluoro-2-methoxypyridin-3-yl)pyrrolidin-1-yl)-N-(1-fluoro-2-methylpropan-2-yl)pyrazolo[1,5-a]pyrimidine-3-carboxamide]"
8,6,"O=C(NC1CC1)c1cnn2ccc(N3CCC[C@@H]3c3cc(F)cc(OCCN4CCOCC4)c3)nc12 [Example 85, (R)—N-cyclopropyl-5-(2-(3-fluoro-5-(2-morpholinoethoxy)phenyl)pyrrolidin-1-yl)pyrazolo[1,5-a]pyrimidine-3-carboxamide]"
9,23,"CC1(C)CC[C@H](c2cc(F)ccc2F)N1c1ccn2ncc(C(=O)NC3CC3)c2n1 [Example 68, (R)—N-cyclopropyl-5-(5-(2,5-difluorophenyl)-2,2-dimethylpyrrolidin-1-yl)pyrazolo[1,5-a]pyrimidine-3-carboxamide]"
10,24.6,"CNC(=O)c1cnn2ccc(N3C[C@@H](O)C[C@@H]3c3cccc(F)c3)nc12 [Example 218, 5-((2R,4S)-2-(3-fluorophenyl)-4-hydroxypyrrolidin-1-yl)-N-methylpyrazolo[1,5-a]pyrimidine-3-carboxamide]"
11,17.3,"NC(=O)c1cnn2ccc(N3CCC[C@@H]3c3cc(F)ccc3OCCN3CCOCC3)nc12 [Example 86, (R)-5-(2-(5-fluoro-2-(2-morpholinoethoxy)phenyl)pyrrolidin-1-yl)pyrazolo[1,5-a]pyrimidine-3-carboxamide]"
12,1.2,"O=C(c1cnn2ccc(N3CCC[C@@H]3c3cncc(F)c3)nc12)N1CC[C@H](O)C1 [Example 128, (5-((R)-2-(5-fluoropyridin-3-yl)pyrrolidin-1-yl)pyrazolo[1,5-a]pyrimidin-3-yl)((S)-3-hydroxypyrrolidin-1-yl)methanone]"
13,-1,"O=C(c1cnn2ccc(N3CCC[C@@H]3c3cncc(F)c3)nc12)N1CCC1 [Example 126, (R)-azetidin-1-yl(5-(2-(5-fluoropyridin-3-yl)pyrrolidin-1-yl)pyrazolo[1,5-a]pyrimidin-3-yl)methanone]"
14,3.3,"O=C(NCC(F)F)c1cnn2ccc(N3CCC[C@@H]3c3cncc(F)c3)nc12 [Example 134, (R)-N-(2,2-difluoroethyl)-5-(2-(5-fluoropyridin-3-yl)pyrrolidin-1-yl)pyrazolo[1,5-a]pyrimidine-3-carboxamide]"
15,10.2,"COc1ncc(F)cc1[C@H]1CCCN1c1ccn2ncc(C(=O)NCC(O)CO)c2n1 (stereo partly drawn) [Example 149, N-(2,3-dihydroxypropyl)-5-((R)-2-(5-fluoro-2-methoxypyridin-3-yl)pyrrolidin-1-yl)pyrazolo[1,5-a]pyrimidine-3-carboxamide]"
16,6.7,"Cn1cc(F)cc([C@H]2CCCN2c2ccn3ncc(C(=O)N[C@H](CO)C(C)(C)C)c3n2)c1=O [Example 233, 5-((R)-2-(5-fluoro-1-methyl-2-oxo-1,2-dihydropyridin-3-yl)pyrrolidin-1-yl)-N-((S)-1-hydroxy-3,3-dimethylbutan-2-yl)pyrazolo[1,5-a]pyrimidine-3-carboxamide]"
17,39.5,"CC(C)(C)NC(=O)c1cnn2ccc(N3CCC[C@@H]3c3cc(F)ccc3F)nc12 [Example 1, (R)—N-tert-butyl-5-(2-(2,5-difluorophenyl)pyrrolidin-1-yl)pyrazolo[1,5-a]pyrimidine-3-carboxamide]"
18,2.8,"O=C(c1cnn2ccc(N3CCC[C@@H]3c3cc(F)ccc3F)nc12)N1CC[C@H](O)C1 [Example 18, (5-((R)-2-(2,5-difluorophenyl)pyrrolidin-1-yl)pyrazolo[1,5-a]pyrimidin-3-yl)((S)-3-hydroxypyrrolidin-1-yl)methanone]"
19,62.8,"CC(C)NC(=O)c1cnn2ccc(N3CCC[C@@H]3c3cc(F)cn(C)c3=O)nc12 [Example 227, (R)-5-(2-(5-fluoro-1-methyl-2-oxo-1,2-dihydropyridin-3-yl)pyrrolidin-1-yl)-N-isopropylpyrazolo[1,5-a]pyrimidine-3-carboxamide]"
20,28.9,"COc1ncc(F)cc1[C@H]1CCCN1c1ccn2ncc(C(=O)NC3CCN(CCO)CC3)c2n1 [Example 159, (R)-5-(2-(5-fluoro-2-methoxypyridin-3-yl)pyrrolidin-1-yl)-N-(1-(2-hydroxyethyl)piperidin-4-yl)pyrazolo[1,5-a]pyrimidine-3-carboxamide]"
21,26.2,"O=C(NC1CCC1)c1cnn2ccc(N3CCC[C@@H]3c3cncc(F)c3)nc12 [Example 101, (R)-N-cyclobutyl-5-(2-(5-fluoropyridin-3-yl)pyrrolidin-1-yl)pyrazolo[1,5-a]pyrimidine-3-carboxamide]"
22,0.2,"O=C(c1cnn2ccc(N3CCC[C@@H]3c3cncc(F)c3)nc12)N1CC(CO)C1 [Example 127, (R)-(5-(2-(5-fluoropyridin-3-yl)pyrrolidin-1-yl)pyrazolo[1,5-a]pyrimidin-3-yl)(3-(hydroxymethyl)azetidin-1-yl)methanone]"
23,66.7,"O=C(NC1CCC1)c1cnn2ccc(N3CCC[C@@H]3c3cc(F)ccc3F)nc12 [Example 14, (R)—N-cyclobutyl-5-(2-(2,5-difluorophenyl)pyrrolidin-1-yl)pyrazolo[1,5-a]pyrimidine-3-carboxamide]"
24,8.6,"CC1(O)CN(C(=O)c2cnn3ccc(N4CCC[C@@H]4c4cc(F)ccc4F)nc23)C1 [Example 32, (R)-(5-(2-(2,5-difluorophenyl)pyrrolidin-1-yl)pyrazolo[1,5-a]pyrimidin-3-yl)(3-hydroxy-3-methylazetidin-1-yl)methanone]"
25,25,"O=C(NC1CC1)c1cnn2ccc(N3CCC[C@@H]3c3cccc(F)c3)nc12 [Example 37, (R)—N-cyclopropyl-5-(2-(3-fluorophenyl)pyrrolidin-1-yl)pyrazolo[1,5-a]pyrimidine-3-carboxamide]"
26,58.9,"Cn1cc(F)cc([C@H]2CCCN2c2ccn3ncc(C(=O)N[C@H]4CC[C@H](O)CC4)c3n2)c1=O [Example 238, 5-((R)-2-(5-fluoro-1-methyl-2-oxo-1,2-dihydropyridin-3-yl)pyrrolidin-1-yl)-N-((trans)-4-hydroxycyclohexyl)pyrazolo[1,5-a]pyrimidine-3-carboxamide]"
27,15.5,"Cn1cc(F)cc([C@H]2CCCN2c2ccn3ncc(C(=O)Nc4ccc(F)cn4)c3n2)c1=O [Example 239, (R)-5-(2-(5-fluoro-1-methyl-2-oxo-1,2-dihydropyridin-3-yl)pyrrolidin-1-yl)-N-(5-fluoropyridin-2-yl)pyrazolo[1,5-a]pyrimidine-3-carboxamide]"
